Source: paper PMC5962642, “Dynamic imaging of adaptive stress response pathway activation for prediction of drug induced liver injury” (Archives of Toxicology, 2018)
“Also recorded” adds a separate entry of the source.

Legend:
[1] = tested on: Srxn1-GFP (oxidative stress); assay: HepG2 Srxn1-GFP BAC reporter, live cell confocal imaging (oxidative stress); type: cell-based, Human; conditions: for Srxn1-GFP reporter response: HepG2 BAC-GFP, 24 h live imaging, 1-100 C-max; for activation of Srxn1-GFP and/or CHOP-GFP (cluster 3): cluster description, reporter not resolved per drug (Srxn1-GFP and/or CHOP-GFP)
Protocol: (§1) Human hepatoma HepG2 cells were acquired from ATCC (clone HB8065). HepG2 Srxn1, DDIT3 (CHOP), CDKN1A (p21) and ICAM1 BAC GFP reporter cell lines were previously established and characterized (Wink et al. [2017]). HepG2 BAC GFP reporters were maintained and exposed to drugs in DMEM high glucose supplemented with 10% (v/v) FBS, 25 U/mL penicillin and 25 µg/mL streptomycin. The cell lines were used between passage 5 and 25. For live cell imaging, the cells were seeded in Greiner black µ-clear 384 wells plates, at 8000 cells per well.
Accumulation of GFP levels, propodium iodide (PI) and Hoechst staining was monitored using a Nikon TiE2000 confocal laser microscope (lasers 540, 488 and 408 nm), equipped with an automated stage and perfect focus system at 37 °C with humidified atmosphere and 5% CO2/air mixture. All imaging was similar as previously described^5. Each 384-well plate contained one reporter cell line, which was exposed to all the compounds used in the screen at one certain concentration (1, 5, 10, 50 or 100 Cmax); for each concentration at least two replicates were imaged per reporter cell line. For the ICAM1-GFP reporter experiments, cells were first exposed for 8 h to compound only; next, TNFα was added to all wells, up to a final concentration of 10 ng/mL. Directly after TNFα treatment the live cell imaging was started.
(§2) Quantitative image analysis was performed with CellProfiler version 2.1.1 (Kamentsky et al. [2011]) with an in house developed CellProfiler module implementing the watershed masked algorithm for segmentation (Yan and Verbeek [2012]; Wink et al. [2017]). Image analysis results were stored as HDF5 files. Data analysis, quality control and graphics were performed using the in house developed R package h5CellProfiler (manuscript in preparation). For each reporter hourly intensity levels of the GFP signal, the nuclear Hoechst33342 intensity levels and at 24 h the PI staining were measured at the single cell level. In addition, cell numbers, nuclei size and cell motility were measured.
(§3) GFP intensity cell population means were calculated. In addition, for each plate the cell population mean GFP intensity of the DMSO treated cells was calculated to determine background control values. Per plate, the single cells that had values above the 2X mean, 3X mean were counted resulting in GFP positive fraction measures. For ICAM1, the background control values consisted of DMSO conditions treated with TNFα, and the single cells with values above, as well as below background values were counted. Due to the non-symmetric distribution of ICAM1 cell population GFP intensities, the interquartile range (IQR) was used to count the number of cells 1.5, 2 and 3 times above and below the TNFα IQR control values (Supplemental Fig. 1).
The maximum values over time of the scaled intensity levels and positive GFP fractions were selected for the concentration response curves. These values were fit to a four parameter log-logistic model using the drc package (Ritz et al. [2015]). BMC values were calculated as the concentration at which + 0.25 (and − 0.25 for ICAM1) absolute increase from the initial response values occurred (Fig. 5a).

[2] = C-max obtained from FDA or literature; ref per compound (FDA, Dailymed, Xu, O’Brien, Khetani, Regenthal, Gustafsson, Dawson, Ogutu, Patel, Schmidt, Ravic, Keisu, Hu, Wagner); cited from earlier work
[3] = ref livertox.nih.gov database; cited from earlier work
[4] = tested on: ICAM1-GFP (NF-κB-mediated inflammatory signaling); assay: HepG2 ICAM1-GFP BAC reporter, TNFα-induced, live cell confocal imaging; type: cell-based, Human; conditions: for modulation of TNFα-induced ICAM1-GFP response: HepG2 BAC-GFP, 8 h compound then TNFα 10 ng/mL, 24 h live imaging, 1-100 C-max
Protocol: Human hepatoma HepG2 cells were acquired from ATCC (clone HB8065). HepG2 Srxn1, DDIT3 (CHOP), CDKN1A (p21) and ICAM1 BAC GFP reporter cell lines were previously established and characterized (Wink et al. [2017]). […] The cell lines were used between passage 5 and 25. For live cell imaging, the cells were seeded in Greiner black μ-clear 384 wells plates, at 8000 cells per well. […] All imaging was similar as previously described^5. […] Directly after TNFα treatment the live cell imaging was started. Quantitative image analysis was performed with CellProfiler version 2.1.1 ([…] et al. [2011]) with an in house developed CellProfiler module implementing the watershed masked algorithm for segmentation (Yan and Verbeek [2012]; Wink et al. [2017]). Image analysis results were stored as HDF5 files. Data analysis, quality control and graphics were performed using the in house developed R package h5CellProfiler (manuscript in preparation). For each reporter hourly intensity levels of the GFP signal, the nuclear Hoechst33342 intensity levels and at 24 h the PI staining were measured at the single cell level. In addition, cell numbers, nuclei size and cell motility were measured. GFP intensity cell population means were calculated. In addition, for each plate the cell population mean GFP intensity of the DMSO treated cells was calculated to determine background control values. Per plate, the single cells that had values above the 2X mean, 3X mean were counted resulting in GFP positive fraction measures. For ICAM1, the background control values consisted of DMSO conditions treated with TNFα, and the single cells with values above, as well as below background values were counted. […] Linear regression was applied with respect to time to quantify treatment effects on a plate-to-plate basis to quantify cell speed, nuclear size, Hoechst nuclear intensity and cell numbers. […] The maximum values over time of the scaled intensity levels and positive GFP fractions were selected for the concentration response curves. These values were fit to a four parameter log-logistic model using the drc package (Ritz et al. [2015]). BMC values were calculated as the concentration at which + 0.25 (and - 0.25 for ICAM1) absolute increase from the initial response values occurred (Fig. 5a).

[5] = ref Chen et al. [2016], cited from earlier work; for DILI con. (DILI-concern labeling): FDA DILI labeling; for Hepa. (hepatotoxicity class): FDA labeling in eight classes of hepatotoxicity
[6] = tested on: CHOP-GFP (ER stress/UPR response); assay: HepG2 CHOP-GFP BAC reporter, live cell confocal imaging (ER stress/UPR); type: cell-based, Human; conditions: for CHOP-GFP reporter response: HepG2 BAC-GFP, 24 h live imaging, 1-100 C-max
[7] = two classes made from the FDA DILI-concern labeling
[8] = tested on: p21-GFP (p53-mediated DNA damage-related response); assay: HepG2 p21-GFP BAC reporter, live cell confocal imaging (DNA damage); type: cell-based, Human; conditions: 24 h live imaging, 1-100 C-max
Protocol: as §1
Accumulation of GFP levels, propodium iodide (PI) and Hoechst staining was monitored using a Nikon TiE2000 confocal laser microscope (lasers 540, 488 and 408 nm), equipped with an automated stage and perfect focus system at 37 °C with humidified atmosphere and 5% CO2/air mixture. All imaging was similar as previously described^5. […]
as §2, with “Image analysis results were stored as HDF5 files. Data analysis, quality control and graphics were performed using the in house developed R package h5CellProfiler (manuscript in preparation).” left out
as §3, with “Due to the non-symmetric distribution of ICAM1 cell population GFP intensities, the interquartile range (IQR) was used to count the number of cells 1.5, 2 and 3 times above and below the TNFα IQR control values (Supplemental Fig. 1).” left out

[9] = order of responses in 24 h, 100× C-max printed for nimesulide, rifampicin, oxytetracycline

| SMILES | Srxn1-GFP reporter response [1] | Cmax [2] [µM] | Metab (metabolic potential) [3] | modulation of TNFα-induced ICAM1-GFP response [4] | DILI con. (DILI-concern labeling) [5] | Hepa. (hepatotoxicity class) [5] | activation of Srxn1-GFP and/or CHOP-GFP (cluster 3) [1] | CHOP-GFP reporter response [6] | Severity class [7] | p21-GFP reporter response [8] | Srxn1-GFP reporter response ([1]; listed as mercaptopurine) | modulation of TNFα-induced ICAM1-GFP response ([4]; listed as mercaptopurine) | point-of-departure (PoD) for ICAM-GFP response relative to onset of SRXN1-GFP response ([4]; peak response, concentration series 1-100 C-max) | Srxn1-GFP response, time dynamics relative to CHOP-GFP [1, 9] | CHOP-GFP response, time dynamics relative to Srxn1-GFP [6, 9] |
| --- | --- | --- | --- | --- | --- | --- | --- | --- | --- | --- | --- | --- | --- | --- | --- |
| Cn1cnc([N+](=O)[O-])c1Sc1ncnc2nc[nH]c12 [Azathioprme, azathioprine] | mild Srxn1-GFP and ICAM1-GFP activation | 0.34 | YES | enhancing; also recorded: mild Srxn1-GFP and ICAM1-GFP activation | Most-DC | 5 |  |  |  |  |  |  |  |  |  |
| CCc1oc2ccccc2c1C(=O)c1cc(Br)c(O)c(Br)c1 [Benzbromarone] |  | 4.34 | YES | mild ICAM1-GFP suppression | Most-DC | 8 | activation of Srxn1-GFP and/or CHOP-GFP |  |  |  |  |  |  |  |  |
| Nc1c(CC(=O)O)cccc1C(=O)c1ccc(Br)cc1 [Bromfenac] |  | 18 |  | mild ICAM1-GFP suppression | Most-DC | 8 | activation of Srxn1-GFP and/or CHOP-GFP |  |  |  |  |  |  |  |  |
| CN1CCN(C2=Nc3cc(Cl)ccc3Nc3ccccc32)CC1 [Clozapine] |  | 2.44 | YES | strong ICAM1-GFP suppression |  |  |  | CHOP-GFP activation |  |  |  |  |  |  |  |
| COc1cc2c(c(OC)c1OC)-c1ccc(OC)c(=O)cc1[C@@H](NC(C)=O)CC2 [Colchicine] | mild Srxn1-GFP and ICAM1-GFP activation | 0.016 | YES | mild Srxn1-GFP and ICAM1-GFP activation | Amb.-DC | 6 |  |  | Non-sev. |  |  |  |  |  |  |
| O=C1CN(/N=C/c2ccc(-c3ccc([N+](=O)[O-])cc3)o2)C(O)=N1 [Dantrolene] |  | 7.9 | YES | mild ICAM1-GFP suppression | Most-DC | 8 | activation of Srxn1-GFP and/or CHOP-GFP |  |  |  |  |  |  |  |  |
| O=C(O)Cc1ccccc1Nc1c(Cl)cccc1Cl [Diclofenac] |  | 10.1 |  | inhibiting; also recorded: mild ICAM1-GFP suppression |  |  | activation of Srxn1-GFP and/or CHOP-GFP |  | Sev. |  |  |  |  |  |  |
| COc1cc([C@@H]2c3cc4c(cc3[C@@H](O[C@@H]3O[C@@H]5CO[C@@H](C)O[C@H]5[C@H](O)[C@H]3O)[C@H]3COC(=O)[C@H]23)OCO4)cc(OC)c1O [Etoposide] |  |  | YES |  |  |  |  |  |  | strong inducers |  |  |  |  |  |
| Sc1ncnc2nc[nH]c12 [Mercaptopurine] | increased | 0.48 | YES | increased | Most-DC | 8 |  | increased |  | increased | relatively strong activation; also recorded: mild Srxn1-GFP and ICAM1-GFP activation | relatively strong activation; also recorded: mild Srxn1-GFP and ICAM1-GFP activation | at a lower C-max |  |  |
| C[C@](N)(Cc1ccc(O)c(O)c1)C(=O)O [Methyldopa] | increased | 18.9 | YES | inhibited | Most-DC | 8 |  |  |  | increased |  |  |  |  |  |
| CCc1nn(CCCN2CCN(c3cccc(Cl)c3)CC2)c(=O)n1CCOc1ccccc1 [Nefazodone] |  | 3.95 | YES | strong ICAM1-GFP suppression | Most-DC | 8 |  | CHOP-GFP activation |  |  |  |  |  |  |  |
| O=C1CN(/N=C/c2ccc([N+](=O)[O-])o2)C(=O)N1 [Nitrofurantoin] |  | 6 | YES | strong ICAM1-GFP suppression | Most-DC | 8 |  | CHOP-GFP activation |  |  |  |  |  |  |  |
| CN(C)[C@@H]1C(O)=C(C(N)=O)C(=O)[C@@]2(O)C(O)=C3C(=O)c4c(O)cccc4[C@@](C)(O)[C@H]3[C@H](O)[C@@H]12 [Oxytetracycline] |  | 3.26 |  |  | Amb.-DC | 2 |  |  |  |  |  |  |  | delayed Srxn1-GFP response | initial CHOP-GFP response |
| C/C=C(/C)C(=O)O[C@H]1C(C)=C2[C@H]([C@@H]1OC(=O)CCCCCCC)[C@@](C)(OC(C)=O)C[C@H](OC(=O)CCC)[C@@]1(O)[C@H]2OC(=O)[C@@]1(C)O [Thapsigargin] |  |  |  |  |  |  |  | strong inducers |  |  |  |  |  |  |  |
